# Reference: patent US20230086703A1, “N-(4-(5-chloropyridin-3-yl)phenyl)-2-(2-(cyclopropanesulfonamido)pyrimidin-4-yl) butanamide derivatives and related compounds as human CTPS1 inhibitors for the treatment of proliferative diseases” (Step Pharma S.A.S., priority 2019, published 2023)
# Target: T1, human CTPS1 (Homo sapiens, UniProt P17812)
# T1 construct: FLAG (with GG linker); His8 (with GG linker); purchased Proteros biostructures GmbH
# T1 sequence (P17812 1-591): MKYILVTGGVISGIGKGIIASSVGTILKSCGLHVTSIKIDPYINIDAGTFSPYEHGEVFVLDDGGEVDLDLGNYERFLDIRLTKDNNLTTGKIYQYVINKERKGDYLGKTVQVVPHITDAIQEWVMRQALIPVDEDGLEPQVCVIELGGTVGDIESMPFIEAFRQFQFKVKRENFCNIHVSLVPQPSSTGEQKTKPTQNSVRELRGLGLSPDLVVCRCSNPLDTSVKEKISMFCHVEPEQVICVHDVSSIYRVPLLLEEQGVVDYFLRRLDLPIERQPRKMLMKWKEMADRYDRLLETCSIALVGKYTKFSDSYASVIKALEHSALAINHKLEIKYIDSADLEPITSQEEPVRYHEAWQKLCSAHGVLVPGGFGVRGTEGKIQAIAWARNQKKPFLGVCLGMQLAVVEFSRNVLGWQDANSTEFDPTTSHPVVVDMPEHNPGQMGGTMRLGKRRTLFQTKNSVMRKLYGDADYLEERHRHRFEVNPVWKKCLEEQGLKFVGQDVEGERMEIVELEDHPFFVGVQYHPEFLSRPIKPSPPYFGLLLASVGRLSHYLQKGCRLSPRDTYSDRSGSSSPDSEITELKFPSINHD
# Experiment: Human CTPS1 enzyme inhibition, ADP-Glo Max assay
# Format: biochemical
# Conditions: ADP-Glo Max assay; Table 10; read-out: Human CTPS1 Enzyme Inhibition, IC50 grouped by potency range (CTPS1)
# Experimental: The enzyme inhibitory activities of compounds invented against the target of interest were determined using the ADP-Glo™ Max assay (Promega, UK). Assays for human CTPS1 were performed in 1× assay buffer containing 50 mM Tris, 10 mM MgCl2, 0.01% Tween-20, pH to 8.0 accordingly. Finally, immediately before use, L-cysteine was added to the 1× assay buffer to a final concentration of 2 mM. All reagents are from Sigma-Aldrich unless specified otherwise.
# 3× human CTPS1 protein was prepared in 1× assay buffer to the final working protein concentration required for the reaction. A 2 uL volume per well of 3× human CTPS1 protein was mixed with 2 uL per well of 3× test compound (compound prepared in 1× assay buffer to an appropriate final 3× compound concentration respective to the concentration response curve designed for the compounds under test) for 10 minutes at 25° C. […] ADP-Glo™ Max reagent was added for 60 minutes (6 μL per well) and subsequently ADP-Glo™ Max development reagent was added for 60 minutes (12 uL per well) prior to signal detection in a microplate reader (EnVision® Multilabel Reader, Perkin Elmer). Following each reagent addition over the course of the assay, assay plates were pulse centrifuged for 30 seconds at 500 rpm.
# In all cases, the enzyme converts ATP to ADP and the ADP-Glo™ Max reagent subsequently depletes any remaining endogenous ATP in the reaction system. The ADP-Glo™ Max detection reagent converts the ADP that has been enzymatically produced back into ATP and using ATP as a substrate together with luciferin for the enzyme luciferase, light is generated which produces a detectable luminescence. […] The percentage inhibition produced by each concentration of compound was calculated using the equation shown below: […]
row,IC50 [nM],SMILES
1,< 100,"CC(C)(C(=O)Nc1ccc(-c2cncc(OCC(F)(F)F)n2)cn1)c1csc(NS(=O)(=O)C2CC2)n1 [T109, 2-(2-(cyclopropanesulfonamido)thiazol-4-yl)-2-methyl-N-(5-(6-(2,2,2-trifluoroethoxy)pyrazin-2-yl)pyridin-2-yl)propanamide]"
2,100 to 1000,"CC(C)(C(=O)Nc1ncc(-c2cnccn2)cc1F)c1csc(NS(=O)(=O)C2CC2)n1 [T110, 2-(2-(cyclopropanesulfonamido)thiazol-4-yl)-N-(3-fluoro-5-(pyrazin-2-yl)pyridin-2-yl)-2-methylpropanamide]"
3,< 100,"CCOc1cncc(-c2cnc(NC(=O)C(C)(C)c3csc(NS(=O)(=O)C4CC4)n3)c(F)c2)n1 [T111, 2-(2-(cyclopropanesulfonamido)thiazol-4-yl)-N-(5-(6-ethoxypyrazin-2-yl)-3-fluoropyridin-2-yl)-2-methylpropanamide]"
4,< 100,"CC(C)(C(=O)Nc1ncc(-c2cncc(C(F)(F)F)n2)cc1F)c1csc(NS(=O)(=O)C2CC2)n1 [T112, 2-(2-(cyclopropanesulfonamido)thiazol-4-yl)-N-(3-fluoro-5-(6-(trifluoromethyl)pyrazin-2-yl)pyridin-2-yl)-2-methylpropanamide]"
5,1000 to 10000,"CC(C)(C(=O)Nc1ncc(-c2cncc(C#N)n2)cc1F)c1csc(NS(=O)(=O)C2CC2)n1 [T113, N-(5-(6-cyanopyrazin-2-yl)-3-fluoropyridin-2-yl)-2-(2-(cyclopropanesulfonamido)thiazol-4-yl)-2-methylpropanamide]"
6,100 to 1000,"CC(C)(C(=O)Nc1ccc(-c2cncc(OCC(F)(F)F)c2)cn1)c1csc(NS(=O)(=O)C2CC2)n1 [T114, 2-(2-(cyclopropanesulfonamido)thiazol-4-yl)-2-methyl-N-(5′-(2,2,2-trifluoroethoxy)-[3,3′-bipyridin]-6-yl)propanamide]"
7,< 100,"CC(C)(C(=O)Nc1ccc(-c2cncc(OC(F)F)c2)cn1)c1csc(NS(=O)(=O)C2CC2)n1 [T115, 2-(2-(cyclopropanesulfonamido)thiazol-4-yl)-N-(5′-(difluoromethoxy)-[3,3′-bipyridin]-6-yl)-2-methylpropanamide]"
8,100 to 1000,"CC(C)(C(=O)Nc1ccc(-c2cccnc2)nc1)c1csc(NS(=O)(=O)C2CC2)n1 [T116, N-([2,3′-bipyridin]-5-yl)-2-(2-(cyclopropanesulfonamido)thiazol-4-yl)-2-methylpropanamide]"
9,100 to 1000,"CC(C)(C(=O)Nc1ccc(-c2cncnc2)nc1)c1csc(NS(=O)(=O)C2CC2)n1 [T117, 2-(2-(cyclopropanesulfonamido)thiazol-4-yl)-2-methyl-N-(6-(pyrimidin-5-yl)pyridin-3-yl)propanamide]"
10,< 100,"CC(C)(C(=O)Nc1ccc(-c2cncc(OC(F)F)c2)cc1)c1csc(NS(=O)(=O)C2CC2)n1 [T118, 2-(2-(cyclopropanesulfonamido)thiazol-4-yl)-N-(4-(5-(difluoromethoxy)pyridin-3-yl)phenyl)-2-methylpropanamide]"
11,< 100,"CCC(CC)(C(=O)Nc1ccc(-c2cncc(OC)n2)cc1)c1csc(NS(=O)(=O)C2CC2)n1 [T119, 2-(2-(cyclopropanesulfonamido)thiazol-4-yl)-2-ethyl-N-(4-(6-methoxypyrazin-2-yl)phenyl)butanamide]"
12,< 100,"CCC(CC)(C(=O)Nc1ccc(-c2cccnc2)cc1F)c1csc(NS(=O)(=O)C2CC2)n1 [T121, 2-(2-(cyclopropanesulfonamido)thiazol-4-yl)-2-ethyl-N-(2-fluoro-4-(pyridin-3-yl)phenyl)butanamide]"
13,< 100,"CCC(CC)(C(=O)Nc1ccc(-c2cnccn2)cc1)c1csc(NS(=O)(=O)C2CC2)n1 [T122, 2-(2-(cyclopropanesulfonamido)thiazol-4-yl)-2-ethyl-N-(4-(pyrazin-2-yl)phenyl)butanamide]"
14,< 100,"CCCOc1cncc(-c2ccc(NC(=O)C(CC)(CC)c3csc(NS(=O)(=O)C4CC4)n3)cc2)n1 [T123, 2-(2-(cyclopropanesulfonamido)thiazol-4-yl)-2-ethyl-N-(4-(6-propoxypyrazin-2-yl)phenyl)butanamide]"
15,< 100,"CCOc1cncc(-c2ccc(NC(=O)C(C)(C)c3csc(NS(=O)(=O)C4CC4)n3)c(F)c2)c1 [T125, 2-(2-(cyclopropanesulfonamido)thiazol-4-yl)-N-(4-(5-ethoxypyridin-3-yl)-2-fluorophenyl)-2-methylpropanamide]"
16,< 100,"CC(C)(C(=O)Nc1ccc(-c2cncc(F)c2)cc1F)c1csc(NS(=O)(=O)C2CC2)n1 [T126, 2-(2-(cyclopropanesulfonamido)thiazol-4-yl)-N-(2-fluoro-4-(5-fluoropyridin-3-yl)phenyl)-2-methylpropanamide]"
17,< 100,"CC(C)(C(=O)Nc1ccc(-c2cncc(OCC(F)(F)F)n2)cc1)c1csc(NS(=O)(=O)C2CC2)n1 [T127, 2-(2-(cyclopropanesulfonamido)thiazol-4-yl)-2-methyl-N-(4-(6-(2,2,2-trifluoroethoxy)pyrazin-2-yl)phenyl)propanamide]"
18,< 100,"CC(C)(C(=O)Nc1ccc(-c2cncc(Cl)c2)cc1F)c1csc(NS(=O)(=O)C2CC2)n1 [T128, N-(4-(5-chloropyridin-3-yl)-2-fluorophenyl)-2-(2-(cyclopropanesulfonamido)thiazol-4-yl)-2-methylpropanamide]"
19,< 100,"CC(C)(C(=O)Nc1ccc(-c2cncc(C#N)c2)cc1F)c1csc(NS(=O)(=O)C2CC2)n1 [T129, N-(4-(5-cyanopyridin-3-yl)-2-fluorophenyl)-2-(2-(cyclopropanesulfonamido)thiazol-4-yl)-2-methylpropanamide]"
20,< 100,"COc1cncc(-c2ccc(NC(=O)C3(c4csc(NS(=O)(=O)C5CC5)n4)CCCC3)cc2)n1 [T130, 1-(2-(cyclopropanesulfonamido)thiazol-4-yl)-N-(4-(6-methoxypyrazin-2-yl)phenyl)cyclopentane-1-carboxamide]"
21,< 100,"CC(C)(C(=O)Nc1ccc(-c2cncc(OCC(F)(F)F)n2)cc1F)c1csc(NS(=O)(=O)C2CC2)n1 [T131, 2-(2-(cyclopropanesulfonamido)thiazol-4-yl)-N-(2-fluoro-4-(6-(2,2,2-trifluoroethoxy)pyrazin-2-yl)phenyl)-2-methylpropanamide]"
22,100 to 1000,"CC(C)(C(=O)Nc1ccc(-c2cncc(OCC(F)(F)F)c2)cc1F)c1csc(NS(=O)(=O)C2CC2)n1 [T132, 2-(2-(cyclopropanesulfonamido)thiazol-4-yl)-N-(2-fluoro-4-(5-(2,2,2-trifluoroethoxy)pyridin-3-yl)phenyl)-2-methylpropanamide]"
23,< 100,"CCOc1cncc(-c2ccc(NC(=O)C(C)(C)c3csc(NS(=O)(=O)C4CC4)n3)c(F)c2)n1 [T134, 2-(2-(cyclopropanesulfonamido)thiazol-4-yl)-N-(4-(6-ethoxypyrazin-2-yl)-2-fluorophenyl)-2-methylpropanamide]"
24,100 to 1000,"CC(C)(C(=O)Nc1ccc(-c2cncc(OCC(F)(F)F)c2)cc1)c1csc(NS(=O)(=O)C2CC2)n1 [T135, 2-(2-(cyclopropanesulfonamido)thiazol-4-yl)-2-methyl-N-(4-(5-(2,2,2-trifluoroethoxy)pyridin-3-yl)phenyl)propanamide]"
25,< 100,"C#Cc1cncc(-c2ccc(NC(=O)C(C)(C)c3csc(NS(=O)(=O)C4CC4)n3)cc2)n1 [T136, 2-(2-(cyclopropanesulfonamido)thiazol-4-yl)-N-(4-(6-ethynylpyrazin-2-yl)phenyl)-2-methylpropanamide]"
26,< 100,"CCOc1cncc(-c2ccc(NC(=O)C(C)(C)c3csc(NS(=O)(=O)C4CC4)n3)c(C)c2)n1 [T137, 2-(2-(cyclopropanesulfonamido)thiazol-4-yl)-N-(4-(6-ethoxypyrazin-2-yl)-2-methylphenyl)-2-methylpropanamide]"
27,< 100,"Cc1cc(-c2cncc(Cl)n2)ccc1NC(=O)C(C)(C)c1csc(NS(=O)(=O)C2CC2)n1 [T138, N-(4-(6-chloropyrazin-2-yl)-2-methylphenyl)-2-(2-(cyclopropanesulfonamido)thiazol-4-yl)-2-methylpropanamide]"
